Results: the NIST ThermoML archive (doi:10.1016/j.jct.2015.12.027)

Key:
[1] = refractive index (Na D-line) (dimensionless); xn = mol fraction of the nth substance listed; settings: 81.5 kPa, Liquid, Standard Abbe refractometry
[2] = xn = mol fraction of the nth substance listed; settings: 81.5 kPa, Liquid, Vibrating tube method

ClCCCl [1,2-dichloroethane] + c1ccccc1
Settings | mass density, 293.15 K [kg/m3] | mass density, 303.15 K [kg/m3] | mass density, 313.15 K [kg/m3] | mass density, 323.15 K [kg/m3] | mass density, 333.15 K [kg/m3] | refractive index, 293.15 K | refractive index, 303.15 K | refractive index, 313.15 K | refractive index, 323.15 K | refractive index, 333.15 K
[1], x1 = 0.1002 | – | – | – | – | – | 1.49506 | 1.48919 | 1.48273 | 1.477 | 1.47091
[1], x1 = 0.207 | – | – | – | – | – | 1.48849 | 1.48273 | 1.47644 | 1.4708 | 1.46486
[1], x1 = 0.3043 | – | – | – | – | – | 1.48263 | 1.47694 | 1.47079 | 1.46522 | 1.45939
[1], x1 = 0.4032 | – | – | – | – | – | 1.47684 | 1.47123 | 1.46522 | 1.45971 | 1.45398
[1], x1 = 0.5005 | – | – | – | – | – | 1.47135 | 1.46581 | 1.45994 | 1.45449 | 1.44884
[1], x1 = 0.5975 | – | – | – | – | – | 1.46605 | 1.46058 | 1.45484 | 1.44943 | 1.44387
[1], x1 = 0.7235 | – | – | – | – | – | 1.45935 | 1.45396 | 1.44838 | 1.44302 | 1.43756
[1], x1 = 0.8005 | – | – | – | – | – | 1.45531 | 1.44995 | 1.44445 | 1.43912 | 1.43372
[1], x1 = 0.8918 | – | – | – | – | – | 1.4505 | 1.44519 | 1.43979 | 1.43449 | 1.42916
[1], x1 = 1 | – | – | – | – | – | 1.44472 | 1.43948 | 1.43423 | 1.42897 | 1.42373
[2], x1 = 0.1002 | 911.76 | 900.68 | 889.51 | 878.27 | 866.86 | – | – | – | – | –
[2], x1 = 0.207 | 947.74 | 936.23 | 924.62 | 912.92 | 901.08 | – | – | – | – | –
[2], x1 = 0.3043 | 981.38 | 969.5 | 957.49 | 945.42 | 933.17 | – | – | – | – | –
[2], x1 = 0.4032 | 1016.56 | 1004.31 | 991.92 | 979.41 | 966.77 | – | – | – | – | –
[2], x1 = 0.5005 | 1052.14 | 1039.52 | 1026.72 | 1013.82 | 1000.75 | – | – | – | – | –
[2], x1 = 0.5975 | 1088.72 | 1075.72 | 1062.52 | 1049.18 | 1035.66 | – | – | – | – | –
[2], x1 = 0.7235 | 1137.85 | 1124.32 | 1110.59 | 1096.67 | 1082.64 | – | – | – | – | –
[2], x1 = 0.8005 | 1168.91 | 1155.04 | 1140.95 | 1126.76 | 1112.37 | – | – | – | – | –
[2], x1 = 0.8918 | 1206.83 | 1192.59 | 1178.02 | 1163.49 | 1148.78 | – | – | – | – | –
[2], x1 = 1 | 1252.82 | 1238.27 | 1223.53 | 1208.61 | 1193.61 | – | – | – | – | –

Clc1ccccc1 [chlorobenzene] + ClCCCl
Settings | mass density, 293.15 K [kg/m3] | mass density, 303.15 K [kg/m3] | mass density, 313.15 K [kg/m3] | mass density, 323.15 K [kg/m3] | mass density, 333.15 K [kg/m3] | refractive index, 293.15 K | refractive index, 303.15 K | refractive index, 313.15 K | refractive index, 323.15 K | refractive index, 333.15 K
[1], x2 = 0 | – | – | – | – | – | 1.52455 | 1.51902 | 1.51346 | 1.50781 | 1.50223
[1], x2 = 0.1022 | – | – | – | – | – | 1.51915 | 1.51376 | 1.50848 | 1.50327 | 1.49826
[1], x2 = 0.2027 | – | – | – | – | – | 1.51388 | 1.50871 | 1.50361 | 1.49855 | 1.49366
[1], x2 = 0.3126 | – | – | – | – | – | 1.50734 | 1.50235 | 1.49739 | 1.4924 | 1.4875
[1], x2 = 0.4014 | – | – | – | – | – | 1.50115 | 1.49625 | 1.49135 | 1.48642 | 1.48154
[1], x2 = 0.4994 | – | – | – | – | – | 1.49334 | 1.48847 | 1.48362 | 1.47874 | 1.47393
[1], x2 = 0.6002 | – | – | – | – | – | 1.48436 | 1.47949 | 1.47465 | 1.4698 | 1.46504
[1], x2 = 0.7 | – | – | – | – | – | 1.47478 | 1.46991 | 1.46504 | 1.46017 | 1.45535
[1], x2 = 0.7999 | – | – | – | – | – | 1.46481 | 1.45993 | 1.455 | 1.45001 | 1.44502
[1], x2 = 0.9007 | – | – | – | – | – | 1.45465 | 1.44969 | 1.44464 | 1.43948 | 1.43427
[2], x2 = 0 | 1106.49 | 1095.71 | 1084.86 | 1073.96 | 1063.01 | – | – | – | – | –
[2], x2 = 0.1022 | 1117.76 | 1106.63 | 1095.44 | 1084.22 | 1073.02 | – | – | – | – | –
[2], x2 = 0.2027 | 1129.4 | 1117.99 | 1106.5 | 1094.94 | 1083.38 | – | – | – | – | –
[2], x2 = 0.3126 | 1142.87 | 1131.14 | 1119.28 | 1107.34 | 1095.38 | – | – | – | – | –
[2], x2 = 0.4014 | 1154.41 | 1142.36 | 1130.2 | 1117.94 | 1105.63 | – | – | – | – | –
[2], x2 = 0.4994 | 1167.89 | 1155.52 | 1142.99 | 1130.34 | 1117.61 | – | – | – | – | –
[2], x2 = 0.6002 | 1182.73 | 1169.98 | 1157.05 | 1143.96 | 1130.77 | – | – | – | – | –
[2], x2 = 0.7 | 1198.46 | 1185.33 | 1171.98 | 1158.43 | 1144.78 | – | – | – | – | –
[2], x2 = 0.7999 | 1215.33 | 1201.74 | 1187.98 | 1173.96 | 1159.89 | – | – | – | – | –
[2], x2 = 0.9007 | 1233.56 | 1219.46 | 1205.18 | 1190.75 | 1176.31 | – | – | – | – | –
